Test results reported in patent publication US7208511B2, “Microbicidal composition” (Rohm and Haas Company, priority 2003, dated 2007).

Tests used:
Mixed Bacteria [1] = assay: Speed of Kill test in TSB; assay type: cell-based; conditions: for Minimum Effective Concentration ALONE: 5-log reduction criteria, no end point measured, value is 2× the highest level tested (Lazonby)
Description: (§1) One measure of synergism is the industrially accepted method described by Kull, F. C.; Eisman, P. C.; Sylwestrowicz, H. D. and Mayer, R. L., in Applied Microbiology 9:538–541 (1961), using the ratio determined by the formula: Qa/QA+Qb/QB=Synergy Index (“SI”) wherein: • QA=concentration of compound A (first component) in ppm, acting alone, which produced an end point (MIC of Compound A). • Qa=concentration of compound A in ppm, in the mixture, which produced an end point. • QB=concentration of compound B (second component) in ppm, acting alone, which produced an end point (MIC of Compound B). • Qb=concentration of compound B in ppm, in the mixture, which produced an end point.
(§2) When the sum of Qa/QA and Qb/QB is greater than one, antagonism is indicated. […] The lower the SI, the greater the synergy shown by that particular mixture. The minimum inhibitory concentration (MIC) of a microbicide is the lowest concentration tested under a specific set of conditions that prevents the growth of added microorganisms.
To evaluate “Speed of Kill” an aliquot of 30 g of pH 8 TSB was dispensed in sterile 2 oz (60 mL) jars. Biocides stock solution was added into each jar to achieve the final concentration. The test samples were inoculated with 0.3 ml of mixed bacterial inoculum (resulting in 10^6/ml bacteria per ml of test solution). Samples were then placed in a shaker water bath at 30° C. Bacterial growth was monitored via the microtiter MPN method using the BECKMAN AUTOMATIC 2000 Workstation after 30 min, 1, 4, 24, 48, 72 hours and again 6–7 days contact time. The microtiter plates were incubated at 30° C. for 2 days.
(§3) In each test, First Component (A) was MI and the Second Component (B) was DBNPA. “NG” means that no growth was observed.

Mixed Bacteria [2] = assay: Minimum Inhibitory Concentration (MIC) synergy test, microtiter plate; assay type: cell-based; conditions: after 24 hours at 30° C.
Description: as §1, §2
Synergy tests were conducted using standard microtiter plate assays with media designed for optimal growth of the test microorganism. […] High resolution MICs were determined by adding varying amounts of microbicide to one column of a microtitre plate and doing subsequent ten-fold dilutions using an automated liquid handling system to obtain a series of endpoints ranging from 2 ppm to 10,000 ppm active ingredient. The combinations of the present invention were tested against three bacteria, Pseudomonas aeruginosa (P. aeruginosa —ATCC #15442), Enterobacter aerogenes (ATCC #13048), and Kiebsiella pneumoniae (ATCC #13883). The bacteria were used at a concentration of about 10^8 bacteria per mL. These microorganisms are representative of natural contaminants in many consumer and industrial applications. The plates were visually evaluated for microbial growth (turbidity) to determine the MIC after various incubation times at 30° C.
as §3

With `N#CC(Br)(Br)C(N)=O` [DBNPA, 2,2-dibromo-3-nitrilopropionamide] the “Minimum Effective Concentration ALONE” value (Mixed Bacteria [1]; 24 hr) was 46 ppm AI, the “Minimum Effective Concentration ALONE” value (Mixed Bacteria [1]; 48 hr) was 46 ppm AI and the “Minimum Effective Concentration ALONE” value (Mixed Bacteria [1]; 72 hr) was 46 ppm AI. The “CFU/ml Bacteria Log Reduction vs Control” value (Mixed Bacteria [1]; DBNPA 1 ppm AI alone, 30 min @ 30° C.) was 0.6 log, the “CFU/ml Bacteria Log Reduction vs Control” value (Mixed Bacteria [1]; DBNPA 1 ppm AI alone, 1 hr @ 30° C.) was −0.6 log and the “CFU/ml Bacteria Log Reduction vs Control” value (Mixed Bacteria [1]; DBNPA 1 ppm AI alone, 4 hr @ 30° C.) was −1.0 log. The “CFU/ml Bacteria Log Reduction vs Control” value (Mixed Bacteria [1]; DBNPA 1 ppm AI alone, 24 hr @ 30° C.) was −2.6 log, the “CFU/ml Bacteria Log Reduction vs Control” value (Mixed Bacteria [1]; DBNPA 2 ppm AI alone, 30 min @ 30° C.) was −0.1 log and the “CFU/ml Bacteria Log Reduction vs Control” value (Mixed Bacteria [1]; DBNPA 2 ppm AI alone, 1 hr @ 30° C.) was −0.3 log. The “CFU/ml Bacteria Log Reduction vs Control” value (Mixed Bacteria [1]; DBNPA 2 ppm AI alone, 4 hr @ 30° C.) was −0.8 log, the “CFU/ml Bacteria Log Reduction vs Control” value (Mixed Bacteria [1]; DBNPA 2 ppm AI alone, 24 hr @ 30° C.) was −1.4 log and the “CFU/ml Bacteria Log Reduction vs Control” value (Mixed Bacteria [1]; DBNPA 5 ppm AI alone, 30 min @ 30° C.) was 0.4 log. The “CFU/ml Bacteria Log Reduction vs Control” value (Mixed Bacteria [1]; DBNPA 5 ppm AI alone, 1 hr @ 30° C.) was −0.3 log, the “CFU/ml Bacteria Log Reduction vs Control” value (Mixed Bacteria [1]; DBNPA 5 ppm AI alone, 4 hr @ 30° C.) was −0.8 log and the “CFU/ml Bacteria Log Reduction vs Control” value (Mixed Bacteria [1]; DBNPA 5 ppm AI alone, 24 hr @ 30° C.) was −1.6 log. The “CFU/ml Bacteria Log Reduction vs Control” value (Mixed Bacteria [1]; DBNPA 9 ppm AI alone, 30 min @ 30° C.) was 0.4 log, the “CFU/ml Bacteria Log Reduction vs Control” value (Mixed Bacteria [1]; DBNPA 9 ppm AI alone, 1 hr @ 30° C.) was 0.0 log and the “CFU/ml Bacteria Log Reduction vs Control” value (Mixed Bacteria [1]; DBNPA 9 ppm AI alone, 4 hr @ 30° C.) was −1.0 log. For the same compound, the “CFU/ml Bacteria Log Reduction vs Control” value (Mixed Bacteria [1]; DBNPA 9 ppm AI alone, 24 hr @ 30° C.) was −2.0 log, the “CFU/ml Bacteria Log Reduction vs Control” value (Mixed Bacteria [1]; DBNPA 23 ppm AI alone, 30 min @ 30° C.) was 0.4 log and the “CFU/ml Bacteria Log Reduction vs Control” value (Mixed Bacteria [1]; DBNPA 23 ppm AI alone, 1 hr @ 30° C.) was 0.2 log. For the same compound, the “CFU/ml Bacteria Log Reduction vs Control” value (Mixed Bacteria [1]; DBNPA 23 ppm AI alone, 4 hr @ 30° C.) was −1.0 log, the “CFU/ml Bacteria Log Reduction vs Control” value (Mixed Bacteria [1]; DBNPA 23 ppm AI alone, 24 hr @ 30° C.) was −1.4 log and the “MIC Values ALONE” value (Mixed Bacteria [2]; 1/10 TSB) was 45 ppm AI. For the same compound, the “MIC Values ALONE” value (Mixed Bacteria [2]; M9G + 0.1% yeast extract) was 45 ppm AI.
`Cn1sccc1=O` [MI, 2-methyl-4-isothiazolin-3-one] was tested, and the “Minimum Effective Concentration ALONE” value (Mixed Bacteria [1]; 24 hr) was 300 ppm AI, the “Minimum Effective Concentration ALONE” value (Mixed Bacteria [1]; 48 hr) was 300 ppm AI and the “Minimum Effective Concentration ALONE” value (Mixed Bacteria [1]; 72 hr) was 300 ppm AI. The “CFU/ml Bacteria Log Reduction vs Control” value (Mixed Bacteria [1]; MI 25 ppm AI alone, 30 min @ 30° C.) was −0.3 log, the “CFU/ml Bacteria Log Reduction vs Control” value (Mixed Bacteria [1]; MI 25 ppm AI alone, 1 hr @ 30° C.) was 0.0 log and the “CFU/ml Bacteria Log Reduction vs Control” value (Mixed Bacteria [1]; MI 25 ppm AI alone, 4 hr @ 30° C.) was 0.2 log. For the same compound, the “CFU/ml Bacteria Log Reduction vs Control” value (Mixed Bacteria [1]; MI 25 ppm AI alone, 24 hr @ 30° C.) was −1.3 log, the “CFU/ml Bacteria Log Reduction vs Control” value (Mixed Bacteria [1]; MI 25 ppm AI alone, 48 hr @ 30° C.) was −2.0 log and the “CFU/ml Bacteria Log Reduction vs Control” value (Mixed Bacteria [1]; MI 50 ppm AI alone, 30 min @ 30° C.) was 0.4 log. The “CFU/ml Bacteria Log Reduction vs Control” value (Mixed Bacteria [1]; MI 50 ppm AI alone, 1 hr @ 30° C.) was 0.2 log, the “CFU/ml Bacteria Log Reduction vs Control” value (Mixed Bacteria [1]; MI 50 ppm AI alone, 4 hr @ 30° C.) was 0.4 log and the “CFU/ml Bacteria Log Reduction vs Control” value (Mixed Bacteria [1]; MI 50 ppm AI alone, 24 hr @ 30° C.) was −0.6 log. The “CFU/ml Bacteria Log Reduction vs Control” value (Mixed Bacteria [1]; MI 50 ppm AI alone, 48 hr @ 30° C.) was −1.6 log, the “CFU/ml Bacteria Log Reduction vs Control” value (Mixed Bacteria [1]; MI 75 ppm AI alone, 30 min @ 30° C.) was 0.2 log and the “CFU/ml Bacteria Log Reduction vs Control” value (Mixed Bacteria [1]; MI 75 ppm AI alone, 1 hr @ 30° C.) was 0.2 log. For the same compound, the “CFU/ml Bacteria Log Reduction vs Control” value (Mixed Bacteria [1]; MI 75 ppm AI alone, 4 hr @ 30° C.) was −0.3 log, the “CFU/ml Bacteria Log Reduction vs Control” value (Mixed Bacteria [1]; MI 75 ppm AI alone, 24 hr @ 30° C.) was 0.2 log and the “CFU/ml Bacteria Log Reduction vs Control” value (Mixed Bacteria [1]; MI 75 ppm AI alone, 48 hr @ 30° C.) was −2.0 log. For the same compound, the “CFU/ml Bacteria Log Reduction vs Control” value (Mixed Bacteria [1]; MI 100 ppm AI alone, 168 @ 30° C.) was −2.8 log, the “CFU/ml Bacteria Log Reduction vs Control” value (Mixed Bacteria [1]; MI 100 ppm AI alone, 30 min @ 30° C.) was 0.4 log and the “CFU/ml Bacteria Log Reduction vs Control” value (Mixed Bacteria [1]; MI 100 ppm AI alone, 1 hr @ 30° C.) was 0.6 log. The “CFU/ml Bacteria Log Reduction vs Control” value (Mixed Bacteria [1]; MI 100 ppm AI alone, 4 hr @ 30° C.) was 0.2 log, the “CFU/ml Bacteria Log Reduction vs Control” value (Mixed Bacteria [1]; MI 100 ppm AI alone, 24 hr @ 30° C.) was 0.8 log and the “CFU/ml Bacteria Log Reduction vs Control” value (Mixed Bacteria [1]; MI 100 ppm AI alone, 48 hr @ 30° C.) was 1.7 log. The “CFU/ml Bacteria Log Reduction vs Control” value (Mixed Bacteria [1]; MI 100 ppm AI alone, 72 hr @ 30° C.) was 0.0 log, the “CFU/ml Bacteria Log Reduction vs Control” value (Mixed Bacteria [1]; MI 150 ppm AI alone, 168 @ 30° C.) was −2.0 log and the “CFU/ml Bacteria Log Reduction vs Control” value (Mixed Bacteria [1]; MI 150 ppm AI alone, 30 min @ 30° C.) was 0.6 log. The “CFU/ml Bacteria Log Reduction vs Control” value (Mixed Bacteria [1]; MI 150 ppm AI alone, 1 hr @ 30° C.) was 0.2 log, the “CFU/ml Bacteria Log Reduction vs Control” value (Mixed Bacteria [1]; MI 150 ppm AI alone, 4 hr @ 30° C.) was 0.0 log and the “CFU/ml Bacteria Log Reduction vs Control” value (Mixed Bacteria [1]; MI 150 ppm AI alone, 24 hr @ 30° C.) was −0.2 log. The “CFU/ml Bacteria Log Reduction vs Control” value (Mixed Bacteria [1]; MI 150 ppm AI alone, 48 hr @ 30° C.) was 1.7 log, the “CFU/ml Bacteria Log Reduction vs Control” value (Mixed Bacteria [1]; MI 150 ppm AI alone, 72 hr @ 30° C.) was 0.4 log and the “MIC Values ALONE” value (Mixed Bacteria [2]; 1/10 TSB) was 38 ppm AI. The “MIC Values ALONE” value (Mixed Bacteria [2]; M9G + 0.1% yeast extract) was 38 ppm AI.
